Measurements: BindingDB's records for doi:10.1111/j.1747-0285.2007.00617.x (Burnham Institute For Medical Research, 2008)

Key:
[1] = target: 72 kDa type IV collagenase (Homo sapiens, UniProt P08253); experiment: MMP Inhibition Assay
Description: (§1) This assay was performed as outlined in the Anaspec MMP assay kit. The fluorescence peptide cleavage assay was performed in a 96-well plate in which each reaction mixture contained 5-FAM / QXL520 and activated MMP-2 or MMP-9 in assay buffer, and the screening compounds.

[2] = target: Matrix metalloproteinase-9 (Homo sapiens, UniProt P14780); experiment: MMP Inhibition Assay
Matrix metalloproteinase-9, sequence (P14780 whole entry): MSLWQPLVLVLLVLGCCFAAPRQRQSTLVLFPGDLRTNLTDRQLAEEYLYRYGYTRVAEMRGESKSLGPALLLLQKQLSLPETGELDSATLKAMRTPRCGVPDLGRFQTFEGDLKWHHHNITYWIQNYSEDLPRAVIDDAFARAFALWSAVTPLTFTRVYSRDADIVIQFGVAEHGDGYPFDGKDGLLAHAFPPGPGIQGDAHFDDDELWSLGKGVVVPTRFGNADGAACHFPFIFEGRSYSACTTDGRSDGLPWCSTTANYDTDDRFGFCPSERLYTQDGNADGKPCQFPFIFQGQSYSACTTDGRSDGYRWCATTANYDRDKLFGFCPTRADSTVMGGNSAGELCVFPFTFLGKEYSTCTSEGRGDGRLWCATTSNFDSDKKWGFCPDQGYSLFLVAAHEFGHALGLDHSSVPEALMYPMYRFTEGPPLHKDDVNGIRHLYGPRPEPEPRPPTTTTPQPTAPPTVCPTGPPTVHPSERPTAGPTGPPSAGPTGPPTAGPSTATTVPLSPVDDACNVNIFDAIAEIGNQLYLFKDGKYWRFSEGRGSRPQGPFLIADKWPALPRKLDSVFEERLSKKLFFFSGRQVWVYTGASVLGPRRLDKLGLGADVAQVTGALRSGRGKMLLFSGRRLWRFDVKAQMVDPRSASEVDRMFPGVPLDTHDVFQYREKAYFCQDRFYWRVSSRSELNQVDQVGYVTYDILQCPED
Description: as §1

72 kDa type IV collagenase, sequence (P08253 whole entry): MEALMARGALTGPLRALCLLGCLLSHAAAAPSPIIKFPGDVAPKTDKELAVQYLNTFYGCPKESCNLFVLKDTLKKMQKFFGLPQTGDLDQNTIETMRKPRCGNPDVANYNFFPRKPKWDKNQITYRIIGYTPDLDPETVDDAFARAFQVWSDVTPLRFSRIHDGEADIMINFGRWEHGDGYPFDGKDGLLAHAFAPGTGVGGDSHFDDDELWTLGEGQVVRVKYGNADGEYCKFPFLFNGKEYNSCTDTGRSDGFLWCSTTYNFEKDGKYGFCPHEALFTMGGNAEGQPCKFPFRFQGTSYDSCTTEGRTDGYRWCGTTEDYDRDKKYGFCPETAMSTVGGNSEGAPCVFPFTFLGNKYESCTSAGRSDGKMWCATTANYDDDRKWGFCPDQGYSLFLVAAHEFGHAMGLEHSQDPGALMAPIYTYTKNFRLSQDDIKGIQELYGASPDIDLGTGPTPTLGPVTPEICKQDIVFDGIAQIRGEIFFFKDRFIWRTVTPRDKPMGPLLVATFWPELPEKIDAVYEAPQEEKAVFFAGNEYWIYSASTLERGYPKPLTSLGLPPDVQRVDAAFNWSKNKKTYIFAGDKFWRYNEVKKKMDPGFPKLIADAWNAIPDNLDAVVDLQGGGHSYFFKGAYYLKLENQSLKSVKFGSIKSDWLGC

| SMILES | IC50 [1] [µM] | IC50 [2] [µM] |
| --- | --- | --- |
| O=C(O)CN1C(=O)/C(=C/c2cc(-c3ccc(Cl)cc3)on2)SC1=S [2-[(5Z)-5-{[5-(4-chlorophenyl)-1,2-oxazol-3-yl]methylidene}-4-oxo-2-sulfanylidene-1,3-thiazolidin-3-yl]acetic acid] | 19.2 | > 100 |
| O=C(O)CN1C(=O)/C(=C/c2cc(-c3ccc(F)cc3)on2)SC1=S [2-[(5Z)-5-{[5-(4-fluorophenyl)-1,2-oxazol-3-yl]methylidene}-4-oxo-2-sulfanylidene-1,3-thiazolidin-3-yl]acetic acid] | 10 | > 100 |
| Cc1ccc(-c2cc(/C=C3\SC(=S)N(CC(=O)O)C3=O)no2)cc1 [2-[(5Z)-5-{[5-(4-methylphenyl)-1,2-oxazol-3-yl]methylidene}-4-oxo-2-sulfanylidene-1,3-thiazolidin-3-yl]acetic acid] | < 10 | > 100 |
| O=C(O)CN1C(=O)/C(=C/c2cc(-c3ccco3)on2)SC1=S [2-[(5Z)-5-{[5-(furan-2-yl)-1,2-oxazol-3-yl]methylidene}-4-oxo-2-sulfanylidene-1,3-thiazolidin-3-yl]acetic acid] |  | > 100 |
| O=C(O)CN1C(=O)/C(=C/c2cc(-c3ccc(Br)cc3)on2)SC1=S [2-[(5Z)-5-{[5-(4-bromophenyl)-1,2-oxazol-3-yl]methylidene}-4-oxo-2-sulfanylidene-1,3-thiazolidin-3-yl]acetic acid] | > 100 | 27.4 |
| Cc1nc(-c2ccccc2)c(/C=C2\SC(=S)N(CC(=O)O)C2=O)s1 [2-[(5Z)-5-[(2-methyl-4-phenyl-1,3-thiazol-5-yl)methylidene]-4-oxo-2-sulfanylidene-1,3-thiazolidin-3-yl]acetic acid] | > 100 | > 100 |
| CC(C)(C)OC(=O)N1CCC(c2nc(/C=C3\SC(=S)N(CC(=O)O)C3=O)cs2)CC1 [2-[(5Z)-5-[(2-{1-[(tert-butoxy)carbonyl]piperidin-4-yl}-1,3-thiazol-4-yl)methylidene]-4-oxo-2-sulfanylidene-1,3-thiazolidin-3-yl]acetic acid] | > 100 | > 100 |
| O=C(O)CN1C(=O)/C(=C/c2cc(-c3ccccc3)on2)SC1=S [2-[(5Z)-4-oxo-5-[(5-phenyl-1,2-oxazol-3-yl)methylidene]-2-sulfanylidene-1,3-thiazolidin-3-yl]acetic acid] | > 100 | 50 |
| COc1ccc(-c2cc(/C=C3\SC(=S)N(CC(=O)O)C3=O)no2)cc1 [2-[(5Z)-5-{[5-(4-methoxyphenyl)-1,2-oxazol-3-yl]methylidene}-4-oxo-2-sulfanylidene-1,3-thiazolidin-3-yl]acetic acid] | 6.62 | > 100 |
| O=C(O)CN1C(=O)/C(=C/c2c[nH]c3ccc(Br)cc23)SC1=S [2-[(5Z)-5-[(5-bromo-1H-indol-3-yl)methylidene]-4-oxo-2-sulfanylidene-1,3-thiazolidin-3-yl]acetic acid] |  | > 100 |
| Cc1nc(/C=C2\SC(=S)N(CC(=O)O)C2=O)c(C)o1 [2-[(5Z)-5-[(2,5-dimethyl-1,3-oxazol-4-yl)methylidene]-4-oxo-2-sulfanylidene-1,3-thiazolidin-3-yl]acetic acid] | > 100 | > 100 |
